Reference: patent US7413853B2, “Modulation of metabolism of steroids and xenobiotics” (The Salk Institute for Biological Studies, priority 2001, dated 2008)
Entries after “also recorded” stand apart in the source; their conditions may differ. Like-named read-outs stand apart in the source and are kept apart here.

Legend:
[1] = target: T1, CAR (Mus musculus, UniProt O35627); test: tk-UGT1A6/DR-3 luciferase reporter transfected into CV-1 cells with CAR expression vector; assay type: cell-based; details: tk-UGT1A6/DR-3-Luc
T1 construct: expressed in transfected cells; host or cells: monkey kidney CV-1 cells
T1 sequence (O35627 1-358): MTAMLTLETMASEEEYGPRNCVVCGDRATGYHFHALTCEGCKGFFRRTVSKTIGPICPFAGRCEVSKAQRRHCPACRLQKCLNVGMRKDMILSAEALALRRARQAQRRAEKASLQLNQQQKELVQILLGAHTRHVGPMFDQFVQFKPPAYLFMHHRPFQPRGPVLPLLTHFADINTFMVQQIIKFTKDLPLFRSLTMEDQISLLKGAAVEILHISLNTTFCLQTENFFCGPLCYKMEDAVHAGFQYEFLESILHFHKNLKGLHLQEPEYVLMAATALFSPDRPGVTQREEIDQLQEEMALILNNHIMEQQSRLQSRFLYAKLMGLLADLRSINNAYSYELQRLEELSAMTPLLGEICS
Source text: The reporter gene comprises a thymadine kinase (TK) linked to UGT1A6/DR-3 linked to a luciferace (LUC).
In an exemplary assay, a luciferase reporter gene containing the UGT1A6/DR-3 upstream of a minimal thymidine kinase (tk) promoter was constructed and transfected into monkey kidney CV-1 cells together with expression vectors for SXR, PXR, or CAR.
In FIG. 2, the tk-UGT1A6/DR3-Luc construct comprises a UGT inverted or direct repeat and/or a nuclear receptor binding site such that activation of the response element results in transcription of UGT. […] The response element can also comprise an inverse repeat of a suitable half site separated by a 6 nucleotide spacer, or an inverse repeat of a variant thereof, separated by a 6 nucleotide spacer.

[2] = test system: rat CYP3A23 gene cellular promoter
Description: The PCR-amplified sequences and target mutagenesis were confirmed by DNA sequencing.
(§1) All compounds were purchased from Sigma.
The above notion would predict: (1) The SXR/PXR response element is essential for the activation of CYP3A genes; and (2) The response elements of SXR and PXR are interchangeable. Therefore, mutagenesis analysis was performed on the promoter of the rat CYP3A23 gene to examine these predictions.

[3] = target: T2, SXR (Homo sapiens, UniProt O75469); test: Activation of SXR by thiazolidinediones in hepatocyte cultures and transgenic animals
T2 sequence (O75469 1-434): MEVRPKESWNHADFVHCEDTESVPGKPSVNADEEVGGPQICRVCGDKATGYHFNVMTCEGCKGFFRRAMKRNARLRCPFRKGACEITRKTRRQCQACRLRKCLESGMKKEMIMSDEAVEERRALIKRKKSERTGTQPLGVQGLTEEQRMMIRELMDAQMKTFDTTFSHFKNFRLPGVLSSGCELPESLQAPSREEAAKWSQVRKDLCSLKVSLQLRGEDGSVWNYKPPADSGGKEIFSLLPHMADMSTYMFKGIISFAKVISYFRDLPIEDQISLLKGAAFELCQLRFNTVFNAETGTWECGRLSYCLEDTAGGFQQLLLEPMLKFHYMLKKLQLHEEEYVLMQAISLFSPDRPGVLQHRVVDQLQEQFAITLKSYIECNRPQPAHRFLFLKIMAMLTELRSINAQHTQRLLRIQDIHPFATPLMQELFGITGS
Description: as §1
The animals were allowed free access to food and water at all times. […] When necessary, mice were treated with a single intraperitoneal injection of DEX (50 mg/kg), PCN (40 mg/kg), or CTZ (50 mg/kg).

[4] = test system: SXR; test: Activation of SXR in transfection-based assays; parameters: activation of SXR: dose or concentration left out as unconfirmed
Description: To characterize its response properties, a large variety of steroids, including intermediate and major products of known steroid biosynthetic pathways were tested.

[5] = target: T3, PXR (Mus musculus, UniProt O54915); test: Activation of mouse receptor PXR by the panel of compounds
T3 sequence (O54915 1-431): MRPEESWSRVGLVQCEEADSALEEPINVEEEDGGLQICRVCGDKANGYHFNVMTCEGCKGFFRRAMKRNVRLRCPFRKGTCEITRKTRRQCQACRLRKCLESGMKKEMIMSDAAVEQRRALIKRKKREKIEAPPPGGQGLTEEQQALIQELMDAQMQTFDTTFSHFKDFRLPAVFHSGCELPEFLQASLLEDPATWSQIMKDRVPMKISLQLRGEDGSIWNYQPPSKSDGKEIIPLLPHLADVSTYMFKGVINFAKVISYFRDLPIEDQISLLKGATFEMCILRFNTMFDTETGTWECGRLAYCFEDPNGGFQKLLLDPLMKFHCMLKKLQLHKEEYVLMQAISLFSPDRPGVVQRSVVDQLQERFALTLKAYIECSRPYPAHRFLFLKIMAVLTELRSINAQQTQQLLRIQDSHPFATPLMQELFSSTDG

[6] = target: T3, PXR
[7] = target: T4, GR (Homo sapiens, UniProt P04150); test: Activity of corticosterone catabolites on GR; assay type: cell-based; details: reduced or hydroxylated corticosterone derivatives
T4 sequence (P04150 1-777): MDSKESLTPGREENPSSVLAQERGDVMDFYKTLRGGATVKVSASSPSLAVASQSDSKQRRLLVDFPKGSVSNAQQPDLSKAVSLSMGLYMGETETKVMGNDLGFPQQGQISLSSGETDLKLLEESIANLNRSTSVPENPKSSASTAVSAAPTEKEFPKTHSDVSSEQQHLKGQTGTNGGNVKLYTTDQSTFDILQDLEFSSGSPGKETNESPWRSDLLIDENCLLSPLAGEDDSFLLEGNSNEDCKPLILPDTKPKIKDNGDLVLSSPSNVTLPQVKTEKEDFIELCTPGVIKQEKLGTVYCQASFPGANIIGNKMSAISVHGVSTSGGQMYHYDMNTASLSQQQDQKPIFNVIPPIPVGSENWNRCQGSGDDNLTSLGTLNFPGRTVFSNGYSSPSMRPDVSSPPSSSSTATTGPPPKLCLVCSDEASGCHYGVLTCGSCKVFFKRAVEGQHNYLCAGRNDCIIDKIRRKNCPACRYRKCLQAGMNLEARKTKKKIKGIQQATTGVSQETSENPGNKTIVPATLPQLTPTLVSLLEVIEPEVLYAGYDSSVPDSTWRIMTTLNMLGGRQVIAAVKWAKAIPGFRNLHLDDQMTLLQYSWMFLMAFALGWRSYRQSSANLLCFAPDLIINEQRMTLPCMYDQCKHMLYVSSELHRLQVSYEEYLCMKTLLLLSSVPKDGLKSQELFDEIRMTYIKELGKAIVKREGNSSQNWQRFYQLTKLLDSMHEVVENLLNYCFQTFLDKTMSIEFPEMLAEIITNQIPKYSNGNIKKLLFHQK

[8] = clinical trials, 2510 patients; alanine aminotransferase level > three times the upper limit of normal; cited from earlier work
[9] = transfection-based assays, steroids tested

## C[C@@]12CCC[C@H]1[C@@H]1CC[C@H]3C[C@@H](O)CC[C@]3(C)[C@H]1CC2 [androstanol]
[1]
  effect on CAR activation of UGT reporter: inhibited

## Cc1ccc2cc3c(ccc4ccccc43)c3c2c1CC3 [3MC, 3-methylcholanthrene]
[2]
  activation of CYP3A23 cellular promoter reporter: fail to activate or behave as poor activators

## CN(CCOc1ccc(CC2SC(=O)NC2=O)cc1)c1ccccn1 (stereo not drawn) [BRL, Rosiglitazone]
[3]; hepatocyte cultures and transgenic animals
  activation of SXR by TZDs: fail to activate SXR

## C[C@]12CC[C@H]3[C@@H](CCC4=CC(=O)CC[C@@]43C)[C@@H]1CC[C@@H]2O [testosterone]
[4]
  activation of SXR: activated
[5]
  activation of PXR: similarly activated

## CC(=O)[C@H]1CC[C@H]2[C@@H]3CCC4=CC(=O)CC[C@]4(C)[C@H]3CC[C@]12C [progesterone]
[4]; series of transfections
  SXR activation of DR-3, DR-4 and DR-5 elements: among the best activators
[4]; [9]
  activation of SXR: activated

## C[C@]12CCC(=O)C=C1CC[C@@H]1[C@@H]2[C@@H](O)C[C@]2(C=O)[C@@H](C(=O)CO)CC[C@@H]12 [aldosterone]
[4]
  activation of SXR: inactive
[4]; series of transfections
  SXR activation of DR-3, DR-4 and DR-5 elements: little response

## CCC1(c2ccccc2)C(=O)NC(=O)NC1=O [phenobarbital]
[2]
  activation of CYP3A23 cellular promoter reporter: fail to activate or behave as poor activators
  induction of CYP3A23 cellular promoter reporter: significant induction

## C[C@]12CC[C@@H]3c4ccc(O)cc4CC[C@H]3[C@@H]1CC[C@@H]2O [estradiol, 17β-estradiol]
[4]
  activation of SXR by compounds known to induce CYP3A4: most potent activators
[4]; series of transfections
  SXR activation of DR-3, DR-4 and DR-5 elements: among the best activators
[4]; [9]
  activation of SXR: remarkably effective activators
[2]
  induction of CYP3A23 cellular promoter reporter: significant induction
[6]
  activation of PXR: similarly activated

## estrogen
[4]; [9]
  activation of SXR: activated

## C[C@]12C[C@H](O)[C@H]3[C@@H](C[C@@H](O)C4=CC(=O)CC[C@@]43C)[C@@H]1CC[C@@H]2C(=O)CO [6β-hydroxy corticosterone]
[4]
  activation of SXR by products of steroid catabolism: virtually inactive; also recorded: virtual inactivity
[7]
  activity on GR: slightly active

## O=c1oc2cc(O)ccc2c2oc3cc(O)ccc3c12 [coumestrol]
[4]
  activation of SXR by compounds known to induce CYP3A4: most potent activators

## C[C@]12CCC(=O)C[C@@H]1CC[C@@H]1[C@@H]2[C@@H](O)C[C@]2(C)[C@@H](C(=O)CO)CC[C@@H]12 [5α]
[4]
  activation of SXR by products of steroid catabolism: effective SXR activators
[7]
  activity on GR: slightly active

## C[C@]12C[C@H](O)[C@H]3[C@@H](CCC4=CC(=O)CC[C@@]43C)[C@@H]1CC[C@@H]2C(=O)CO [corticosterone]
[4]
  activation of SXR by compounds known to induce CYP3A4: most potent activators
[4]; series of transfections
  SXR activation of DR-3, DR-4 and DR-5 elements: among the best activators
[4]; [9]
  activation of SXR: most potent and efficacious activator; also recorded: activated; also recorded: strongest known activator

## CC/C(=C(/CC)c1ccc(O)cc1)c1ccc(O)cc1 [DES, diethylstilbestrol]
[4]
  activation of SXR by compounds known to induce CYP3A4: most potent activators

## C[C@]12CCC(=O)C[C@H]1CC[C@@H]1[C@@H]2[C@@H](O)C[C@]2(C)[C@@H](C(=O)CO)CC[C@@H]12 [5β]
[4]
  activation of SXR by products of steroid catabolism: effective SXR activators
[7]
  activity on GR: completely inactive

## CC(=O)[C@H]1CC[C@H]2[C@@H]3CC=C4C[C@@H](O)CC[C@]4(C)[C@H]3CC[C@]12C [pregnenolone]
[4]; series of transfections
  SXR activation of DR-3, DR-4 and DR-5 elements: among the best activators
[2]
  activation of CYP3A23 cellular promoter reporter: fail to activate or behave as poor activators
  induction of CYP3A23 cellular promoter reporter: significant induction

## C[C@]12CC[C@H](O)CC1=CC[C@@H]1[C@@H]2CC[C@]2(C)C(=O)CC[C@@H]12 [DHEA, dehydroepiandrosterone]
[4]
  SXR activation of DR-3, DR-4 and DR-5 elements: intermediate group

## Cc1c(C)c2c(c(C)c1O)CCC(C)(COc1ccc(CC3SC(=O)NC3=O)cc1)O2 (stereo not drawn) [troglitazone]
[3]
  activation of SXR by TZDs: activate SXR
[8]
  troglitazone-induced hepatotoxicity, share of patients: 1.9%

## C[C@]12CCC(=O)C=C1CC[C@@H]1[C@@H]2C(=O)C[C@@]2(C)[C@H]1CC[C@]2(O)C(=O)CO [cortisone]
[4]; series of transfections
  SXR activation of DR-3, DR-4 and DR-5 elements: intermediate group

## C[C@]12CCC(=O)C=C1CC[C@@H]1[C@@H]2[C@@H](O)C[C@@]2(C)[C@H]1CC[C@]2(O)C(=O)CO [cortisol]
[4]; series of transfections
  SXR activation of DR-3, DR-4 and DR-5 elements: little response

## Clc1cnc(Oc2ccc(Oc3ncc(Cl)cc3Cl)cc2)c(Cl)c1 [TCPOBOP, 1,4-bis[2-(3,5-dichloropyridyloxy)] benzene]
[1]
  effect on CAR activation of UGT reporter: potentiated

## C[C@]12CCC(=O)C[C@@H]1CC[C@@H]1[C@@H]2CC[C@]2(C)[C@@H](O)CC[C@@H]12 [dihydrotestosterone]
[4]
  SXR activation of DR-3, DR-4 and DR-5 elements: among the best activators
  activation of SXR: remarkably effective activators
